Experimental data taken from US20080009418A1, “Selective Inhibitors” (Alchemia LTD., priority 2004, published 2008).

Key:
[1] = target: T1, Human Melanocortin (MC3) (Homo sapiens, UniProt P41968); assay: Radioligand binding, human melanocortin MC3 membranes, FlashPlate, [125I]-NDP-αMSH; details: compound at 10 μM; [125I]-NDP-αMSH, FlashPlate
T1 construct: purchased Perkin Elmer Biosignal
Summary of the method: (§1)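 Cloned human receptor membranes were coated onto FlashPlate wells and incubated with radioligand and compound (added from a 0.5 mM DMSO daughter plate) for 1 hour at room temperature in the dark. Scintillation counting gave percent inhibition, with DMSO defining total and reference ligand defining non-specific binding.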

[2] = target: T2, Human opioid (ORL1) (Homo sapiens, UniProt P41146); assay: Radioligand binding, human opioid ORL1 membranes, FlashPlate, [125I]-Nociceptin; details: compound at 10 μM; [125I]-Nociceptin, FlashPlate
T2 construct: purchased Perkin Elmer Biosignal
Summary of the method: as §1

[3] = target: T3, Human Melanocortin (MC4) (Homo sapiens, UniProt P32245); assay: Radioligand binding, human melanocortin MC4 membranes, FlashPlate, [125I]-NDP-αMSH; details: compound at 10 μM; [125I]-NDP-αMSH, FlashPlate
T3 construct: purchased Perkin Elmer Biosignal
Summary of the method: as §1

[4] = target: T4, Human μ-opioid (MOP) (Homo sapiens, UniProt P35372); assay: Radioligand binding, human μ-opioid (MOP) membranes, FlashPlate, [3H]-Naloxone; details: compound at 10 μM; [3H]-Naloxone, FlashPlate
T4 construct: purchased Perkin Elmer Biosignal
Summary of the method: as §1

[5] = target: T5, Human κ-Opioid (KOP) (Homo sapiens, UniProt P41145); assay: Radioligand binding, human κ-opioid (KOP) membranes, filtration, [3H]-Diprenorphine; details: compound at 10 μM; [3H]-Diprenorphine, filtration
T5 construct: purchased Perkin Elmer Biosignal
Summary of the method: (§2)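 Filtration binding on cloned human receptor membranes (1 Unit/well), [125I]-Substance P for NK1 and [3H]-Diprenorphine for KOP, 1 h at room temperature. Filters PEI-presoaked, washed with cold 50 mM Tris-HCl pH 7.4, counted by scintillation; percent inhibition calculated, reference ligand defining non-specific binding.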

[6] = target: T6, Human melanocortin (MC5) (Homo sapiens, UniProt P33032); assay: Radioligand binding, human melanocortin MC5 membranes, FlashPlate, [125I]-NDP-αMSH; details: compound at 10 μM; [125I]-NDP-αMSH, FlashPlate
T6 construct: purchased Perkin Elmer Biosignal
Summary of the method: as §1

[7] = target: T7, Human melanin-concentrating hormone (MCH1) (Homo sapiens, UniProt Q99705); assay: Radioligand binding, human melanin-concentrating hormone MCH1 membranes, FlashPlate, [125I]-S36057; details: compound at 10 μM; [125I]-S36057, FlashPlate
T7 construct: purchased Perkin Elmer Biosignal
Summary of the method: as §1

[8] = target: T8, Mouse urotensin (mUR2) (Mus musculus, UniProt Q8VIH9); assay: Radioligand binding, mouse urotensin mUR2 membranes, FlashPlate, [125I]-Urotensin II; details: compound at 10 μM; [125I]-Urotensin II, FlashPlate
T8 construct: purchased Perkin Elmer Biosignal
T8 sequence (Q8VIH9 1-385): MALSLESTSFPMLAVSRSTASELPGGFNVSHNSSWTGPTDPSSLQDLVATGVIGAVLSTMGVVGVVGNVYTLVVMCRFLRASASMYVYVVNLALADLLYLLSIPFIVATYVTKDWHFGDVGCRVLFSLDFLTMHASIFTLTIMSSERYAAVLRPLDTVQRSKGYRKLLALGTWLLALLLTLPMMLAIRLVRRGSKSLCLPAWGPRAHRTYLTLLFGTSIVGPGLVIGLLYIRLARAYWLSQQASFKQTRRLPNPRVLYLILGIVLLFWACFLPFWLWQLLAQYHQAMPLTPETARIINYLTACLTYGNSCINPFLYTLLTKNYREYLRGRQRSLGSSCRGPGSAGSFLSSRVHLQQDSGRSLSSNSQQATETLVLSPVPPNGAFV
Summary of the method: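 Cloned mouse urotensin (mUR2) receptor membranes from Perkin Elmer Biosignal were immobilized in FlashPlate microplates using a proprietary coating. Each well got 19.5 μl buffer, then 0.5 μl of DMSO, reference ligand, or compound. Adding 5 μl of [125I]-Urotensin II, diluted to 5× final concentration in binding buffer, started binding. Plates were sealed with TopSeal-A and incubated 1 hour at room temperature in the dark. Wells were counted for 30 seconds each on a TopCount after a 60-second delay, and percentage inhibition was calculated.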

[9] = target: T9, Human δ-opioid (DOP) (Homo sapiens, UniProt P41143); assay: Radioligand binding, human δ-opioid (DOP) membranes, FlashPlate, [3H]-Bremazocine; details: compound at 10 μM; [3H]-Bremazocine, FlashPlate
T9 construct: purchased Perkin Elmer Biosignal
Summary of the method: as §1

[10] = target: T10, Human neuropeptide Y (NPY-Y1) (Homo sapiens, UniProt P25929); assay: Radioligand binding, human neuropeptide Y NPY-Y1 membranes, FlashPlate, [125I]-PYY; details: compound at 10 μM; [125I]-PYY, FlashPlate
T10 construct: purchased Perkin Elmer Biosignal
T10 sequence (P25929 1-384): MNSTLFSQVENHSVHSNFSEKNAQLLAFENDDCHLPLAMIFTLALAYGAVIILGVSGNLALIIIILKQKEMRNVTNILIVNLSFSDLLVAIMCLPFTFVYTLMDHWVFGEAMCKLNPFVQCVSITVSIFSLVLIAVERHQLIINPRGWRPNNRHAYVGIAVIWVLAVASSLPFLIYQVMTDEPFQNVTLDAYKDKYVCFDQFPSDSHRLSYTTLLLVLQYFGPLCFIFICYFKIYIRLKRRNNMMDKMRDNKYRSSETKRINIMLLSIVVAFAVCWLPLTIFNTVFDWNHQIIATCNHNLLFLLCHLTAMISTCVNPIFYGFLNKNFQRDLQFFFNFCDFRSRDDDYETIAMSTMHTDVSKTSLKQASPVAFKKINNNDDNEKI
Summary of the method: as §1

[11] = target: T11, Human neurokinin (NK1) (Homo sapiens, UniProt P25103); assay: Radioligand binding, human neurokinin NK1 membranes, filtration, [125I]-Substance P; details: compound at 10 μM; [125I]-Substance P, filtration
T11 construct: purchased Perkin Elmer Biosignal
Summary of the method: as §2

T3 sequence (P32245 whole entry): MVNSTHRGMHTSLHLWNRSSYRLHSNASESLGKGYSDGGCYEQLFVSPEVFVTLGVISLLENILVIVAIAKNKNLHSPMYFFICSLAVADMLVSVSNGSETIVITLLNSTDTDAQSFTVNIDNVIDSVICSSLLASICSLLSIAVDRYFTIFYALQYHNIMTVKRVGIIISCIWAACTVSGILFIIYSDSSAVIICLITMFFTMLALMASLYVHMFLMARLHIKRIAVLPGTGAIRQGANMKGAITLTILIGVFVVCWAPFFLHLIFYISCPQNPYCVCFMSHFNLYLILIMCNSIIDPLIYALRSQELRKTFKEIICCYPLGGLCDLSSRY
T5 sequence (P41145 whole entry): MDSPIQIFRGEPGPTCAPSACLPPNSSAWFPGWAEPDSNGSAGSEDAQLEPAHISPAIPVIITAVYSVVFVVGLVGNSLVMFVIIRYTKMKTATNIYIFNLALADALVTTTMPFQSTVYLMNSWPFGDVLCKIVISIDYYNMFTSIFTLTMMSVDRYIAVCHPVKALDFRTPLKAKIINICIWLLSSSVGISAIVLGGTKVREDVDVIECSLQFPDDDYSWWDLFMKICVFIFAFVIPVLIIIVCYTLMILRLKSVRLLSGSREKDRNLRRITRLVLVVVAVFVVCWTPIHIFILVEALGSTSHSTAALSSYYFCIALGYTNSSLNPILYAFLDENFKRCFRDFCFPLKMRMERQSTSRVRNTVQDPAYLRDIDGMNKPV
T1 sequence (P41968 whole entry): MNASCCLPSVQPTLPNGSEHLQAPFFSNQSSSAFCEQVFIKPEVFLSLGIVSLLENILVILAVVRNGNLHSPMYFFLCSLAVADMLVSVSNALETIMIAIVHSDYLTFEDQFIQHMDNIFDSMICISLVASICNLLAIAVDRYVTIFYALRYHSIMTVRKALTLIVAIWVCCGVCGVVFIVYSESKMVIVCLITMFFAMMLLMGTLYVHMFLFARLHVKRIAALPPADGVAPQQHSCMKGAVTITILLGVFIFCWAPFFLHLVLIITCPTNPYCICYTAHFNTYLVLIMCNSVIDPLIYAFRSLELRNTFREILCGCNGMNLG
T6 sequence (P33032 whole entry): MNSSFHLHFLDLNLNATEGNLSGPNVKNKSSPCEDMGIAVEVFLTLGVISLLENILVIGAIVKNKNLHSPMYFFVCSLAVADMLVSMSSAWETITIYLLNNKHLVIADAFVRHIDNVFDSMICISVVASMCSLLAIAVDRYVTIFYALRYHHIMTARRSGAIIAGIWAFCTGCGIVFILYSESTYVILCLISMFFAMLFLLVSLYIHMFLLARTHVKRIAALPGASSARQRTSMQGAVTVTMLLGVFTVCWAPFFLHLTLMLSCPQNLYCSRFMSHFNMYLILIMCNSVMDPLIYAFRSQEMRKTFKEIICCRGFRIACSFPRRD
T9 sequence (P41143 whole entry): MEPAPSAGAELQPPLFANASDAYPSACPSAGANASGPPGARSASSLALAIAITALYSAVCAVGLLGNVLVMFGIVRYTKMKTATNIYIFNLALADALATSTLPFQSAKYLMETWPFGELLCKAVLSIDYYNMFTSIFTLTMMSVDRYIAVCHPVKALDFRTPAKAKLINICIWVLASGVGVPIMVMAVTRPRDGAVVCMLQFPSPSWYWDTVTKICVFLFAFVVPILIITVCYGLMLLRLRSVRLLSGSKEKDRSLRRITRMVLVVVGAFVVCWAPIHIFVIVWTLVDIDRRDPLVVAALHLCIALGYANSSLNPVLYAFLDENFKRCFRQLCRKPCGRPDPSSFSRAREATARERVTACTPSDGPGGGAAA
T7 sequence (Q99705 whole entry): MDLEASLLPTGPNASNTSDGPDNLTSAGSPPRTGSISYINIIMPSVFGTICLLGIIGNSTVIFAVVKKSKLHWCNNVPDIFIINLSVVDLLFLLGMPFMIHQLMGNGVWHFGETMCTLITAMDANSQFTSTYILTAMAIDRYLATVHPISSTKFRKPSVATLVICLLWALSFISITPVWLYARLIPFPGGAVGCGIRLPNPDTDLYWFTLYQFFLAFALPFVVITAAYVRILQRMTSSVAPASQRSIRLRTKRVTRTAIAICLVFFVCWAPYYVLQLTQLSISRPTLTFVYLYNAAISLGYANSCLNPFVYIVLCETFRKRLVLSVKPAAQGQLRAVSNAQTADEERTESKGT
T2 sequence (P41146 whole entry): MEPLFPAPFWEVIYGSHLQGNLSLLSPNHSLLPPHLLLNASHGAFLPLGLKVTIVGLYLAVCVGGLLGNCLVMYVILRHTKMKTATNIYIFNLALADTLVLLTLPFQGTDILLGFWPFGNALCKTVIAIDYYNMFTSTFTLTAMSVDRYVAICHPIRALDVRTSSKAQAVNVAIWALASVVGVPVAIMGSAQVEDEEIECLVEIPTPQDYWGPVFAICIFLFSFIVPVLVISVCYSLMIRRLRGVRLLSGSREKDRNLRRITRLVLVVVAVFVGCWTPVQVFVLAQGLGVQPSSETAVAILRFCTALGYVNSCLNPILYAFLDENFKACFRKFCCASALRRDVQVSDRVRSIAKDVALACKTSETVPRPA
T11 sequence (P25103 whole entry): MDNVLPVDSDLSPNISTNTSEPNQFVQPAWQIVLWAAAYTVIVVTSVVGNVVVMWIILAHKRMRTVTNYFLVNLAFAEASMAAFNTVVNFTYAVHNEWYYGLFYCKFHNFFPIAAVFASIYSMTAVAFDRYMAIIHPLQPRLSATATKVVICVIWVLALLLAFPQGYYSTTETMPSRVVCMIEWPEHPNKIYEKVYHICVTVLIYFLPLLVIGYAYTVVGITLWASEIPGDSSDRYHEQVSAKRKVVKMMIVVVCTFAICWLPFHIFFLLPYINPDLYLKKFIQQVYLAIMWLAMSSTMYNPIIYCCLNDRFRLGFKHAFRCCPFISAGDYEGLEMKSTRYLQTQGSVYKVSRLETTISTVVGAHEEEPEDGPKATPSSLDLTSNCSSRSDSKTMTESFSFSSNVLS
T4 sequence (P35372 whole entry): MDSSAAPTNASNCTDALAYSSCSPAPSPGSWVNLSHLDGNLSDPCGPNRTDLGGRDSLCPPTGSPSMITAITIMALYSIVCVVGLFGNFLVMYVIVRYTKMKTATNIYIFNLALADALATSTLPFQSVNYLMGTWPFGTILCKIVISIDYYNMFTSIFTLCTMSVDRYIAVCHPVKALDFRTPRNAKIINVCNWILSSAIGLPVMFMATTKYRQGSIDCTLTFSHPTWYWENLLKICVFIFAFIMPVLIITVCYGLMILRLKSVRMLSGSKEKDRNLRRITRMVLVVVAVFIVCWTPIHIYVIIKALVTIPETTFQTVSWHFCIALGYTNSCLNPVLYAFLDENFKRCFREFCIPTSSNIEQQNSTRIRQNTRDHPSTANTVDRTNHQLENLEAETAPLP

SMILES	A3: inhibition of radioligand binding [1]	A10: inhibition of radioligand binding [2]	A4: inhibition of radioligand binding [3]	A7: inhibition of radioligand binding [4]	A2: inhibition of radioligand binding [5]	A5: inhibition of radioligand binding [6]	A6: inhibition of radioligand binding [7]	A11: inhibition of radioligand binding [8]	A1: inhibition of radioligand binding [9]	A9: inhibition of radioligand binding [10]	A8: inhibition of radioligand binding [11]
COCC1OC(OCc2ccc(Cl)cc2)C(NC(=O)CCNC(=N)N)C(OCc2ccccc2)C1O (stereo not drawn) [compound 196]	− (“−” indicates less than 50% inhibition at 10 μM)	− (“−” indicates less than 50% inhibition at 10 μM)	− (“−” indicates less than 50% inhibition at 10 μM)	− (“−” indicates less than 50% inhibition at 10 μM)	− (“−” indicates less than 50% inhibition at 10 μM)	− (“−” indicates less than 50% inhibition at 10 μM)	− (“−” indicates less than 50% inhibition at 10 μM)	− (“−” indicates less than 50% inhibition at 10 μM)	+ (“+” indicates greater than 50% inhibition at 10 μM)	− (“−” indicates less than 50% inhibition at 10 μM)	+ (“+” indicates greater than 50% inhibition at 10 μM)
COCC1OC(OCc2ccc(Cl)cc2)C(NC(=O)CCCN)C(OCc2ccccc2)C1O (stereo not drawn) [compound 197]	− (“−” indicates less than 50% inhibition at 10 μM)	− (“−” indicates less than 50% inhibition at 10 μM)	− (“−” indicates less than 50% inhibition at 10 μM)	− (“−” indicates less than 50% inhibition at 10 μM)	− (“−” indicates less than 50% inhibition at 10 μM)	− (“−” indicates less than 50% inhibition at 10 μM)	− (“−” indicates less than 50% inhibition at 10 μM)	− (“−” indicates less than 50% inhibition at 10 μM)	− (“−” indicates less than 50% inhibition at 10 μM)	− (“−” indicates less than 50% inhibition at 10 μM)	+ (“+” indicates greater than 50% inhibition at 10 μM)
COCC1OC(OCc2ccc(Cl)cc2)C(NC(=O)CCCNC(=N)N)C(OCc2ccccc2)C1O (stereo not drawn) [compound 198]	− (“−” indicates less than 50% inhibition at 10 μM)	− (“−” indicates less than 50% inhibition at 10 μM)	− (“−” indicates less than 50% inhibition at 10 μM)	− (“−” indicates less than 50% inhibition at 10 μM)	− (“−” indicates less than 50% inhibition at 10 μM)	+ (“+” indicates greater than 50% inhibition at 10 μM)	− (“−” indicates less than 50% inhibition at 10 μM)	− (“−” indicates less than 50% inhibition at 10 μM)	− (“−” indicates less than 50% inhibition at 10 μM)	− (“−” indicates less than 50% inhibition at 10 μM)	+ (“+” indicates greater than 50% inhibition at 10 μM)
COCC1OC(OCc2ccc(Cl)cc2)C(NC(=O)CN)C(OCc2ccc(Cl)cc2)C1O (stereo not drawn) [compound 199]	− (“−” indicates less than 50% inhibition at 10 μM)	− (“−” indicates less than 50% inhibition at 10 μM)	− (“−” indicates less than 50% inhibition at 10 μM)	− (“−” indicates less than 50% inhibition at 10 μM)	− (“−” indicates less than 50% inhibition at 10 μM)	− (“−” indicates less than 50% inhibition at 10 μM)	− (“−” indicates less than 50% inhibition at 10 μM)	− (“−” indicates less than 50% inhibition at 10 μM)	− (“−” indicates less than 50% inhibition at 10 μM)	− (“−” indicates less than 50% inhibition at 10 μM)	+ (“+” indicates greater than 50% inhibition at 10 μM)
COCC1OC(OCc2ccc(Cl)cc2)C(NC(=O)CNC(=N)N)C(OCc2ccc(Cl)cc2)C1O (stereo not drawn) [compound 200]	+ (“+” indicates greater than 50% inhibition at 10 μM)	− (“−” indicates less than 50% inhibition at 10 μM)	+ (“+” indicates greater than 50% inhibition at 10 μM)	− (“−” indicates less than 50% inhibition at 10 μM)	− (“−” indicates less than 50% inhibition at 10 μM)	+ (“+” indicates greater than 50% inhibition at 10 μM)	− (“−” indicates less than 50% inhibition at 10 μM)	− (“−” indicates less than 50% inhibition at 10 μM)	− (“−” indicates less than 50% inhibition at 10 μM)	− (“−” indicates less than 50% inhibition at 10 μM)	+ (“+” indicates greater than 50% inhibition at 10 μM)
COCC1OC(OCc2ccc(Cl)cc2)C(NC(=O)CCN)C(OCc2ccc(Cl)cc2)C1O (stereo not drawn) [compound 201]	− (“−” indicates less than 50% inhibition at 10 μM)	− (“−” indicates less than 50% inhibition at 10 μM)	− (“−” indicates less than 50% inhibition at 10 μM)	− (“−” indicates less than 50% inhibition at 10 μM)	− (“−” indicates less than 50% inhibition at 10 μM)	+ (“+” indicates greater than 50% inhibition at 10 μM)	− (“−” indicates less than 50% inhibition at 10 μM)	− (“−” indicates less than 50% inhibition at 10 μM)	− (“−” indicates less than 50% inhibition at 10 μM)	− (“−” indicates less than 50% inhibition at 10 μM)	+ (“+” indicates greater than 50% inhibition at 10 μM)
